From ChEMBL document CHEMBL4033746, “Synthesis, potential anti-inflammatory and analgesic activities study of (S)-N-substituted-1-phenyl-3,4-dihydroisoquinoline-2(1H)-carboxamides” (Bioorg Med Chem Lett, 2017)
pIC50: −log10 of the molar value.

Experiments:
Mus musculus [1] = test: Analgesic activity in mouse at 100 mg/kg, ip measured after 60 mins at 58 degC by hot plate method; type: functional
Mus musculus [2] = test: Analgesic activity in mouse at 30 mg/kg, ip measured after 60 mins at 58 degC by hot plate method; type: functional
Mus musculus [3] = test: Anti-inflammatory activity in mouse model of xylene-induced ear edema assessed as inhibition of ear edema at 10 mg/kg, ip pre-treated before xylene injection and measured 1 hr post xylene injection relative to untreated control; type: functional
Mus musculus [4] = test: Analgesic activity in mouse at 10 mg/kg, ip measured after 60 mins at 58 degC by hot plate method; type: functional
Mus musculus [5] = test: Anti-inflammatory activity in mouse model of xylene-induced ear edema assessed as inhibition of ear edema at 20 mg/kg, ip pre-treated before xylene injection and measured 1 hr post xylene injection relative to untreated control; type: functional
Mus musculus [6] = test: Anti-inflammatory activity in mouse model of xylene-induced ear edema assessed as inhibition of ear edema at 30 mg/kg, ip pre-treated before xylene injection and measured 1 hr post xylene injection relative to untreated control; type: functional
Mus musculus [7] = test: Anti-inflammatory activity in mouse model of xylene-induced ear edema assessed as inhibition of ear edema at 100 mg/kg, ip pre-treated before xylene injection and measured 1 hr post xylene injection relative to untreated control; type: functional
Mus musculus [8] = test: Analgesic activity in mouse at 20 mg/kg, ip measured after 60 mins at 58 degC by hot plate method; type: functional
[9] = biological target: T1, Prostaglandin G/H synthase 1 (Ovis aries, UniProt P05979); test: Inhibition of ovine COX1
T1 sequence (P05979 whole entry): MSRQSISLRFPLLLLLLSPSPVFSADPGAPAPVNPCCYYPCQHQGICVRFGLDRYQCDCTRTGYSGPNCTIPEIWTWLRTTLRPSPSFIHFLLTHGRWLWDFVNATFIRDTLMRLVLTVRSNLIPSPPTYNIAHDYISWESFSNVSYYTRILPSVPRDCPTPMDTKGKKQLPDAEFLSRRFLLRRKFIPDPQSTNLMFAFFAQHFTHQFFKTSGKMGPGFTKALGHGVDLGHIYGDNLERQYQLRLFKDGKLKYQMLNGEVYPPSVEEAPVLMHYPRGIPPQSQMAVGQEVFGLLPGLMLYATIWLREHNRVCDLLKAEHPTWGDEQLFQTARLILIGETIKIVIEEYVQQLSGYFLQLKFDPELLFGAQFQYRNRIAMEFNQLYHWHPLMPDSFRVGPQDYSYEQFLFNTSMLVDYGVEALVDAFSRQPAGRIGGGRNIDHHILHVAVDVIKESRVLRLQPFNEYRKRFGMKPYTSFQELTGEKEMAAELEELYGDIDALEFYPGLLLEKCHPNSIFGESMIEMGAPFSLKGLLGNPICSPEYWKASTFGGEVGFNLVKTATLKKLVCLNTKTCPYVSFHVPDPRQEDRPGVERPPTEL

Mus musculus [10] = test: Anti-inflammatory activity in mouse model of xylene-induced ear edema assessed as inhibition of ear edema at 10 to 30 mg/kg, ip pre-treated before xylene injection and measured 1 hr post xylene injection relative to untreated control; type: functional, organism-based

SMILES | Activity (Mus musculus [1]) | Activity (Mus musculus [2]) | inhibition in vivo at 10 mg/kg (Mus musculus [3]) | Activity (Mus musculus [4]) | inhibition in vivo at 20 mg/kg (Mus musculus [5]) | inhibition in vivo at 30 mg/kg (Mus musculus [6]) | inhibition in vivo at 100 mg/kg (Mus musculus [7]) | Activity (Mus musculus [8]) | pIC50 [9] | inhibition (Mus musculus [10])
O=C(Nc1cccc(Br)c1)N1CCc2ccccc2[C@@H]1c1ccccc1 | 89.8% | 80.2% | 44.2% | 58.7% | 51.7% | 61.2% | 83.1% | 63.7% | 5.11 | –
O=C(N(c1ccccc1)c1ccccc1)N1CCc2ccccc2[C@@H]1c1ccccc1 | 73.3% | – | – | – | – | – | 86.3% | – | – | –
COc1ccc2c(c1)c(CC(=O)O)c(C)n2C(=O)c1ccc(Cl)cc1 [INDOMETHACIN] | 98.6% | – | 51 to 90.4% | 73.7% | – | – | – | – | – | –
O=C(Nc1cccc(Cl)c1)N1CCc2ccccc2[C@@H]1c1ccccc1 | 100% | – | – | – | – | – | 88% | – | – | –
Cc1cccc(NC(=O)N2CCc3ccccc3[C@@H]2c2ccccc2)c1 | 99.2% | – | – | – | – | – | 86.4% | – | – | –
O=C(Nc1c(Cl)cccc1Cl)N1CCc2ccccc2[C@@H]1c1ccccc1 | 100% | – | – | – | – | – | 92.7% | – | – | Dose-dependent effect
O=C(Nc1ccccc1)N1CCc2ccccc2[C@@H]1c1ccccc1 | 100% | 87.2% | 60.3% | 69.6% | 69.5% | 74.7% | 95% | 76.4% | 5.27 | Dose-dependent effect
O=C(NCc1ccccc1)N1CCc2ccccc2[C@@H]1c1ccccc1 | 96.3% | – | – | – | – | – | 77.4% | – | – | –
O=C(Nc1cccc(F)c1)N1CCc2ccccc2[C@@H]1c1ccccc1 | 89.8% | – | – | – | – | – | 84.9% | – | – | –
COc1cccc(NC(=O)N2CCc3ccccc3[C@@H]2c2ccccc2)c1 | 94.6% | – | – | – | – | – | 85.9% | – | – | –
